Data published in PMC9250534, “Synthesis and direct assay of large macrocycle diversities by combinatorial late-stage modification at picomole scale” (Nature Communications, 2022).
Numbered stars: 1 amine (or outer) side, 2 acyl side, 3 side chain; on linkers, the order of the positions; unused ones are H or OH. Bridge positions count the residues as written; N and C are the ends. Square brackets hold non-standard residues; d marks the D form. Peptide text beside a SMILES is read from it. * marks the point of attachment. 2Thenoyl(5-Cl) = O=C(c1ccc(Cl)s1)*; Cysteamide = C(CS[*:3])N[*:1]; X3 = O=C(Cc1c[nH]c2ccccc12)*; Isovaleryl = CC(C)CC(=O)*; dDap = NC[C@@H](N)C(=O)O; Dap = NC[C@H](N)C(=O)O; Mpa = O=C(O)CCS

Molecular target: T1, thrombin (Homo sapiens, UniProt P00734)
T1 construct: consists of two polypeptide chains of 36 (light chain) and 259 amino acid
Assay: Thrombin inhibition screen of crude macrocycle reactions (residual thrombin activity, fluorogenic substrate Z-Gly-Gly-Arg-AMC)
Assay type: biochemical
Details: 10 µM macrocycle concentration; for percent residual thrombin activity: crude reactions, Library 1a-l, scaffold AA1-AA2-AA3 combined with 1-16 or '-'; for % thrombin activity, Original screen / % thrombin activity, Repeat screen: macrocycles containing acid 14, crude reaction; for % thrombin activity, Repeat screen: replicate reaction and screen
Procedure, shortened: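 Each crude macrocycle (10 μM) was preincubated 10 min at room temperature with thrombin (2 nM final) in Tris-Cl pH 7.4 containing NaCl, MgCl2, CaCl2, 0.1% BSA, 0.01% Triton X-100 and 0.6% DMSO. Z-Gly-Gly-Arg-AMC (50 μM final) was then added. Inhibition came from fluorescence slopes relative to DMSO-only controls.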

| Structure (SMILES) | percent residual thrombin activity [%] | % thrombin activity, Original screen [%] | % thrombin activity, Repeat screen [%] |
| --- | --- | --- | --- |
| CC[C@H](C)[C@@H]1NC(=O)CCSSCCNC(=O)[C@H]2CCCN(C2)C(=O)[C@H](CCCCNC(=O)c2cnccn2)NC1=O [I-D1-B4/2] | 114.834 | – | – |
| CC(C)[C@@H]1NC(=O)CCSSCCNC(=O)[C@@H]2CCCN2C(=O)[C@H](CCCCNC(=O)c2ccc(Cl)s2)NC1=O [v-D1-B1/14] ([Mpa]VK(2Thenoyl(5-Cl))P-Cysteamide; disulfide 1-C) | 97.5215 | – | – |
| O=C1CCSSCCNC(=O)[C@H](CCCCNC(=O)c2ccco2)NC(=O)[C@H](Cc2cnc[nH]2)NC(=O)c2ccc(cc2)CN1 [B3-H-D1/16] | 107.22 | – | – |
| O=C(NC[C@@H]1NC(=O)[C@@H]2CCCN2C(=O)CCSSCCNC(=O)[C@@H](Cc2ccccc2)NC1=O)c1ccc(Cl)s1 [X B1 D3 f] ([Mpa]P[Dap](2Thenoyl(5-Cl))[dF]-Cysteamide; disulfide 1-C) | – | 86.2 | 88.2 |
| O=C(Cc1c[nH]c2ccccc12)NCCC[C@@H]1NC(=O)CCSSCCNC(=O)[C@H](Cc2c[nH]cn2)NC(=O)c2cccc(c2)CNC1=O [D2-B5-H/12] | 99.4462 | – | – |
| Cc1nnsc1C(=O)NCCC[C@@H]1NC(=O)CCSSCCNC(=O)c2ccc(cc2)CNC(=O)[C@H](Cc2c[nH]c3ccccc23)NC1=O [D2-W-B3/15] | 116.257 | – | – |
| NC(=O)CC[C@@H]1NC(=O)CCSSCCNC(=O)[C@H](CCCCNC(=O)c2ccc(Cl)s2)NC(=O)C2(CC2)CNC1=O [Q-B6-D1/14] | 99.4946 | – | – |
| NCCCC[C@@H]1NC(=O)[C@H](Cc2ccc(O)cc2)NC(=O)CCSSCCNC(=O)[C@H]2CCCN(C2)C1=O [Y-D1-B4/-] | 108.211 | – | – |
| NC(=O)CCC1NC(=O)C2CC(NC(=O)c3ccc(Cl)s3)CN2C(=O)CCSSCCNC(=O)c2ccc(cc2)CNC1=O (centres unmarked) [X D5 Q B3] | – | 94.5 | 101.1 |
| COc1ccc(C(=O)NCCC[C@@H]2NC(=O)CCSSCCNC(=O)[C@H](Cc3ccc(O)cc3)NC(=O)c3cccc(c3)CNC2=O)cn1 [D2-B5-Y/10] | 96.9489 | – | – |
| O=C1CCSSCCNC(=O)[C@H](CNC(=O)c2ccc(Cl)s2)NC(=O)[C@@H](Cc2ccccc2)NC(=O)C2(CC2)CN1 [X B6 f D3] | – | 49.0 | 42.0 |
| CC[C@H](C)[C@@H]1NC(=O)CCSSCCNC(=O)c2ccc(cc2)CNC(=O)[C@H](CNC(=O)c2ccc(Cl)s2)NC1=O [X I D3 B3] | – | 102.3 | 104.9 |
| O=C(Cc1c[nH]c2ccccc12)NCCC[C@@H]1NC(=O)c2ccc(cc2)CNC(=O)[C@H](CO)NC(=O)CCSSCCNC1=O [S-B3-D2/12] | 111.94 | – | – |
| O=C1CCSSCCNC(=O)[C@H](CCCCNC(=O)c2ccc(Cl)s2)NC(=O)C2(CC2)CNC(=O)[C@H](Cc2c[nH]c3ccccc23)N1 [W-B6-D1/14] | 81.7178 | – | – |
| CC[C@H](C)[C@@H]1NC(=O)[C@H](CCCNC(=O)COc2ccccc2)NC(=O)c2cccc(c2)CNC(=O)CCSSCCNC1=O [B5-D2-I/13] | 106.564 | – | – |
| O=C(COc1ccccc1)NCCCC[C@@H]1NC(=O)[C@@H](Cc2c[nH]c3ccccc23)NC(=O)[C@H]2CCCN(C2)C(=O)CCSSCCNC1=O [B4-W-D1/13] | 97.6967 | – | – |
| O=C1CCSSCCNC(=O)C(Cc2ccccc2)NC(=O)C(CNC(=O)c2ccc(Cl)s2)NC(=O)c2ccc(cc2)CN1 (centres unmarked) [X B3 D3 f] | – | 91.1 | 96.6 |
| CC(C)CC(=O)NCCC[C@@H]1NC(=O)c2ccc(cc2)CNC(=O)[C@H](CO)NC(=O)CCSSCCNC1=O [S-B3-D2/8] | 113.923 | – | – |
| C[C@H]1NC(=O)[C@H](CCCNC(=O)c2ccc(Cl)s2)NC(=O)CCSSCCNC(=O)CCNC1=O [D2-a-B2/14] | 108.542 | – | – |
| CC[C@H](C)[C@@H]1NC(=O)CNC(=O)CCNC(=O)[C@@H](NC(=O)c2ccc(Cl)s2)CSSCCNC1=O [C B2 G I] | – | 110.0 | 114.7 |
| O=C1CCNC(=O)[C@@H](CO)NC(=O)CCSSCCNC(=O)[C@H](CCCCNC(=O)c2ccco2)N1 [s-B2-D1/16] | 112.001 | – | – |
| CC(C)C[C@@H]1NC(=O)CCSSCCNC(=O)[C@@H]2CCCN2C(=O)[C@@H](CNC(=O)c2ccc(Cl)s2)NC1=O [X L D4 B1] ([Mpa]L[dDap](2Thenoyl(5-Cl))P-Cysteamide; disulfide 1-C) | – | 107.5 | 100.9 |
| COc1ccc(C(=O)NCCCC[C@@H]2NC(=O)CCSSCCNC(=O)[C@@H](Cc3ccc(O)cc3)NC(=O)CCNC2=O)cn1 [D1-B2-y/10] | 108.421 | – | – |

| Structure (SMILES) | percent residual thrombin activity [%] | % thrombin activity, Original screen [%] | % thrombin activity, Repeat screen [%] |
| --- | --- | --- | --- |
| NC(=O)CC[C@@H]1NC(=O)[C@H](CCCCNC(=O)c2c[nH]c(=O)[nH]c2=O)NC(=O)C2(CC2)CNC(=O)CCSSCCNC1=O [B6-D1-Q/11] | 105.488 | – | – |
| O=C1CCSSCCNC(=O)C2(CCN(C(=O)c3ccc(Cl)s3)CC2)NC(=O)[C@H](Cc2c[nH]cn2)NC(=O)CCN1 [X B2 H D6] | – | 96.8 | 101.7 |
| O=C1CCSSCCNC(=O)[C@H](CCCCNC(=O)c2cnccn2)NC(=O)[C@H](Cc2ccc(O)cc2)NC(=O)C2(CC2)CN1 [B6-Y-D1/2] | 106.813 | – | – |
| C[C@H]1NC(=O)CCSSCCNC(=O)c2ccc(cc2)CNC(=O)[C@@H]2C[C@H](NC(=O)c3ccc(Cl)s3)CN2C1=O [X a D5 B3] | – | 110.0 | 116.2 |
| O=C1CCSSCCNC(=O)[C@H](Cc2ccc(O)cc2)NC(=O)[C@H](CCCNC(=O)c2c[nH]c(=O)[nH]c2=O)NC(=O)C2(CC2)CN1 [B6-D2-Y/11] | 102.523 | – | – |
| C[C@H]1NC(=O)CCSSCCNC(=O)[C@H](CCCCNC(=O)c2c[nH]c(=O)cn2)NC(=O)CCNC1=O [a-B2-D1/9] | 102.459 | – | – |
| CC(C)CC(=O)NCCCC[C@@H]1NC(=O)[C@H](CC(C)C)NC(=O)CCSSCCNC(=O)[C@@H]2CCCN2C1=O [L-D1-B1/8] ([Mpa]LK(Isovaleryl)P-Cysteamide; disulfide 1-C) | 109.409 | – | – |
| CC(C)[C@@H]1NC(=O)[C@H](CNC(=O)c2ccc(Cl)s2)NC(=O)[C@H]2CCCN(C2)C(=O)CCSSCCNC1=O [X B4 D3 V] | – | 62.4 | 58.2 |
| NC(=O)CC[C@@H]1NC(=O)C2(CC2)CNC(=O)CCSSCCNC(=O)[C@H](CCCNC(=O)c2ccc(Cl)s2)NC1=O [X B6 Q D2] | – | 99.3 | 95.8 |
| NC(=O)CC[C@@H]1NC(=O)[C@H](CCCCNC(=O)Cc2c[nH]c3ccccc23)NC(=O)CCSSCCNC(=O)[C@@H]2CCCN2C1=O [D1-Q-B1/12] ([Mpa]K(X3)QP-Cysteamide; disulfide 1-C) | 104.82 | – | – |
| O=C1CCSSCCNC(=O)[C@H](Cc2ccc(O)cc2)NC(=O)c2cccc(c2)CNC(=O)[C@H](CCCNC(=O)c2ccc(Cl)s2)N1 [D2-B5-Y/14] | 78.2447 | – | – |
| C[C@H]1NC(=O)[C@H](CCCNC(=O)c2ccc(Cl)s2)NC(=O)CCSSCCNC(=O)CCNC1=O [X D2 a B2] | – | 108.5 | 109.5 |
| CC(C)C[C@@H]1NC(=O)CCSSCCNC(=O)[C@H](CCCNC(=O)Cc2c[nH]c3ccccc23)NC(=O)[C@H]2CCCN(C2)C1=O [L-B4-D2/12] | 105.489 | – | – |
| O=C1CCSSCCNC(=O)C(CCCCNC(=O)c2ccc(Cl)s2)NC(=O)C(CO)NC(=O)c2cccc(c2)CN1 (centres unmarked) [X B5 S D1] | – | 96.4 | 100.5 |
| O=C(NCCCC[C@@H]1NC(=O)[C@@H]2CCCN2C(=O)CCSSCCNC(=O)[C@@H](Cc2ccc(O)cc2)NC1=O)c1ccc(Cl)s1 [X B1 D1 y] ([Mpa]PK(2Thenoyl(5-Cl))[dY]-Cysteamide; disulfide 1-C) | – | 103.7 | 108.0 |
| CC(C)CC(=O)NCCCC[C@@H]1NC(=O)[C@@H](Cc2c[nH]c3ccccc23)NC(=O)[C@H]2CCCN(C2)C(=O)CCSSCCNC1=O [B4-W-D1/8] | 98.2761 | – | – |
| CC(C)C[C@@H]1NC(=O)CCSSCCNC(=O)[C@H](CCCCNC(=O)c2c[nH]c(=O)cn2)NC(=O)C2(CC2)CNC1=O [L-B6-D1/9] | 98.21 | – | – |
| C[C@H]1NC(=O)CCSSCCNC(=O)[C@H](CCCCNC(=O)c2ccc(Cl)s2)NC(=O)CCNC1=O [X a B2 D1] | – | 95.2 | 101.4 |
| O=C1CCNC(=O)[C@H](CO)NC(=O)[C@H](CCCNC(=O)c2ccc(Cl)s2)NC(=O)CCSSCCN1 [X D2 S B2] | – | 105.4 | 107.4 |
| O=C(Cc1c[nH]c2ccccc12)NCCCC[C@@H]1NC(=O)[C@@H](CO)NC(=O)[C@@H]2CCCN2C(=O)CCSSCCNC1=O [B1-s-D1/12] ([Mpa]P[dS]K(X3)-Cysteamide; disulfide 1-C) | 111.278 | – | – |
| O=C1CCSSCCNC(=O)[C@H](CCCCNC(=O)c2ccc(Cl)s2)NC(=O)[C@H](Cc2c[nH]cn2)NC(=O)c2ccc(cc2)CN1 [B3-H-D1/14] | 102.666 | – | – |
| CC[C@H](C)[C@@H]1NC(=O)CCSSCCNC(=O)[C@H]2CCCN(C2)C(=O)[C@H](CCCCN)NC1=O [I-D1-B4/-] | 114.483 | – | – |
| NCCCC[C@@H]1NC(=O)CCSSCCNC(=O)C2(CC2)CNC(=O)[C@H](Cc2cnc[nH]2)NC1=O [D1-H-B6/-] | 116.392 | – | – |
